Laboratory results reported in patent US20180153868A1, “TREATMENT OF BREAST CANCER BY CONCOMITANT ADMINISTRATION OF A BROMODOMAIN INHIBITOR AND A SECOND AGENT” (Gilead Sciences, Inc., priority 2016, published 2018).
Where two headings read alike, the source gives them in different places. One block for each molecule: values may come before it.

Legend:
Format in all cases: cell-based
T47D [1] = experiment: Colony formation / survival assay, T47D
Protocol: (§1) Colony Formation or Survival Asasys: Cells were seeded in 12-well plates in triplicates at a density of 600 cells per well for MCF7 and 800 cells per well for T47D cells. Cells were treated after overnight incubated. Medium was changed every 3-4 days until cluster of colonies were formed. The plates were incubated for 7 days for MCF7 cells and xx days for T47D cells. Colonies in the plate were fixed and stained with Formaldehyde (1.0% v/v), Methanol (1%) and crystal violet (1% w/v) for xx min; thoroughly washed with water and air dry and counted using with automated colony counter (Gel counter. OXFORD OPTRONIC Inc). Results are present as average colony count ±SD.
(§2) Impact on cell growth can also be evaluated in colony survival assays. To evaluate the effect of compound (I-1) on colony survival, MCF7 and T47D were plated at low density and treated with several doses of compound (I-1) alone and in combination with fulvestrant. The number of colonies formed after 7 days in culture was evaluated (FIG. 9). […] In the presence of fulvestrant, colony number was reduced 73%, and 20 nM compound (I-1) further reduced colony number by 92%. […] In the presence of fulvestrant, colony number was reduced 41%.

MCF7 [2] = experiment: Colony formation / survival assay, MCF7; conditions: 7 days
Protocol: as §1, §2

ER = ER protein expression in MCF7 and T47D (FIG. 1); conditions: 24 hours
From the text: (§3) ER, when bound by estrogen or […] such as fulvestrant, undergoes a conformational change that promotes ubiquitination and degradation of the receptor.

MCF7 [3] = experiment: Cell viability assay (Cell Titer-Glo), MCF7; conditions: for EC50: Homo sapiens, 72 hours
Protocol: (§4) The cell viability was determined using the Cell Titer-Glo luminescent cell viability assay, according to the manufacturer's instructions. Luminescence was measured using a PHERAstar FS microplate reader (BMG LABTECH, German). The half-maximal inhibitory concentration (IC50) values were calculated using the prism plot software. The effects of treatments were measured by conducting three independent experiments.

[4] = system: ER targets GREB1, MYC, and PGR; experiment: Protein expression of ER targets in MCF7 and T47D (FIG. 1); conditions: 24 hours
From the text: as §3

T47D [5] = experiment: Cell viability assay (Cell Titer-Glo), T47D; conditions: for EC50: Homo sapiens, 96 hours
Protocol: as §4

[6] = single agent fulvestrant treatment
[7] = 20 nM compound (I-1) in the presence of fulvestrant
[8] = compound (I-1) alone, read-out: average EC50, cell viability
[9] = in the presence of fulvestrant, read-out: EC50, cell viability

SMILES: C[C@]12CC[C@@H]3c4ccc(O)cc4C[C@@H](CCCCCCCCC[S+]([O-])CCCC(F)(F)C(F)(F)F)[C@H]3[C@@H]1CC[C@@H]2O (stereo partly shown) [fulvestrant, reference compound]
colony number reduced (T47D [1]; fulvestrant alone): 41% | colony number reduced (MCF7 [2]; fulvestrant alone): 73% | ER protein levels (ER; 12 nM Fulvestrant): reduced ER protein levels | reduced growth (average) (MCF7 [3]; [6]): 47.0±19.6% | estrogen induction of GREB1, MYC, PGR protein expression ([4]; in the presence of fulvestrant (12 nM)): significantly reduced | reduced growth (average) (T47D [5]; [6]): 35.8±5.0%

EC50 (MCF7 [3]; [8]): 61.3 ± 8.4 nM | EC50 (MCF7 [3]; [9]): 25 ± 10.6 nM | increase in potency (EC50 alone vs in combination with fulvestrant) (MCF7 [3]; p value 0.00027): 2.5 fold | EC50 (T47D [5]; [8]): 95.3 ± 16.5 nM | EC50 (T47D [5]; [9]): 64 ± 5 nM | increase in potency (EC50 alone vs in combination with fulvestrant) (T47D [5]; p value 0.0030): 1.5 fold
SMILES: Cc1noc(C)c1-c1cc(C(O)(c2ccccn2)c2ccccn2)c2nc(C3CC3)[nH]c2c1 [compound (I-1), (2-cyclopropyl-6-(3,5-dimethylisoxazol-4-yl)-1H-benzo[d]imidazol-4-yl)di(pyridin-2-yl)methanol]
effect on colony number (T47D [1]; 20 nM compound (I-1) alone): no significant effect | effect on colony number (T47D [1]; [7]): no significant effect | reduced colony number (T47D [1]; 60 nM compound (I-1) alone): 53% | further reduced colony number (T47D [1]; 60 nM compound (I-1) in the presence of fulvestrant): 66% | reduced colony number (T47D [1]; 120 nM compound (I-1) alone): 60% | further reduced colony number (T47D [1]; 120 nM compound (I-1) in the presence of fulvestrant): 78% | reduced colony number (MCF7 [2]; 20 nM compound (I-1) alone): 48% | further reduced colony number (MCF7 [2]; [7]): 92% | effect on colonies (MCF7 [2]; 60 nM compound (I-1) alone): nearly all colonies eliminated | effect on colonies (MCF7 [2]; 120 nM compound (I-1) alone): nearly all colonies eliminated | ER protein expression (ER; 100 or 50 nM compound (I-1) added under estrogen or fulvestrant treatments): further reduced ER protein expression | ER target (GREB1, MYC, PGR) expression ([4]; addition of 50 or 100 nM compound (I-1)): consistently reduced target expression | ER target (GREB1, MYC, PGR) protein reduction ([4]; combination of fulvestrant and compound (I-1)): most pronounced protein reduction
